Test results published in patent publication US20260035384A1, “COMPOUND CONTAINING CYCLOHEXYL” (CHIA TAI TIANQING PHARMACEUTICAL GROUP CO., LTD., priority 2022, published 2026).
Numbering of substitutions follows the chain as printed. Where two headings read alike, the source gives them in different places.

Experiments:
AR in VCaP cells = target: T1, AR in VCaP cells (Homo sapiens, UniProt P10275); assay: Assay on degradation activity for AR in VCaP cells (HTRF human androgen receptor detection kit); type: cell-based; settings: 24 h incubation
T1 construct: Assay on Degradation Activity for AR in VCaP Cells; endogenous in cells; host or cells: VCaP cells
T1 sequence (P10275 1-920): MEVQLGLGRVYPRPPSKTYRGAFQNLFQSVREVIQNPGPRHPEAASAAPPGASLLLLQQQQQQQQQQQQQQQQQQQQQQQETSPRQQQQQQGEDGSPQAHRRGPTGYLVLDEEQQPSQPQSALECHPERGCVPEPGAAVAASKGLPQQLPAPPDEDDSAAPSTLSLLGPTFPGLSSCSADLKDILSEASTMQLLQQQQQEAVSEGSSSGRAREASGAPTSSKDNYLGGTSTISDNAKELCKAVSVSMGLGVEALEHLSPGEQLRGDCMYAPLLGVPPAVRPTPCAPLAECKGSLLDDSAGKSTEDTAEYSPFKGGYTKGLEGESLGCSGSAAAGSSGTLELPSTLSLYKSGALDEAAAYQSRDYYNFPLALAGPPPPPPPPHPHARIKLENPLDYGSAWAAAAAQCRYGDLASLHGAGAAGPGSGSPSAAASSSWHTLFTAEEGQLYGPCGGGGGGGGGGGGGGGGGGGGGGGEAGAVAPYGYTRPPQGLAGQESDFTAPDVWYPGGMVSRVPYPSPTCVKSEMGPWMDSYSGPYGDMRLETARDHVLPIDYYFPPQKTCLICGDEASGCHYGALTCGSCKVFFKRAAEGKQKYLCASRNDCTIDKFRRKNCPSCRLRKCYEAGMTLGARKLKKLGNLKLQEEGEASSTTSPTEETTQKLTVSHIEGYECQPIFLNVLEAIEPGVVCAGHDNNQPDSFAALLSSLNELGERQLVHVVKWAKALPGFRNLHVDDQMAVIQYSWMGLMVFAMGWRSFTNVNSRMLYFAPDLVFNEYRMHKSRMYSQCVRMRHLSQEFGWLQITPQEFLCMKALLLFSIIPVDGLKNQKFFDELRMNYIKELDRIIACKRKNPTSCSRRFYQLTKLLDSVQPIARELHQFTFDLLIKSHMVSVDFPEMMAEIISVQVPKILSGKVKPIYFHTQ
Method: The detection was carried out using the HTRF HUMAN ANDROGEN RECEPTOR DETECTION KIT (cisbio, 64ANDRPEG), 4× Supplemented Lysis buffer was prepared using the Blocking reagent stock solution (100×) and Lysis buffer stock solution (4×), and 1× Supplemented Lysis buffer was prepared using the 4× Supplemented Lysis buffer and ddH2O. Premixed antibody solutions were prepared using Detection buffer, Androgen Receptor Eu Cryptate antibody, and Androgen Receptor d2 antibody.
VCaP cells in a good growth state were taken, washed with PBS, digested with pancreatin, and added with 2% CSS—FBS phenol red-free DMEM complete medium to terminate the digestion. The cells were collected by using a centrifuge tube, adjusted to a cell density of 1×10^6 cells/mL, and seeded in a 96-well plate (100 µL/well). The cells were incubated overnight in a cell incubator. Compounds were added using a nanoliter pipettor such that the final concentrations of the compounds were 1000 nM-0.977 nM. Two duplicate wells were set for each concentration, and meanwhile, a control was set. After another 24 h of incubation in the cell incubator, the medium was pipetted out, the 1× Supplemented Lysis buffer was added at 40 μL/well to lyse the cells. After the cells were oscillated for 40 min at room temperature, 16 μL of the cell lysate was added to a 384-well plate, the Premixed antibody solutions were added at 4 μL/well, and the mixture was left to stand at 25° C. for 2 h. Fluorescence values were detected at 665 nm/620 nm using an Envision microplate reader, the four-parameter analysis was performed, the dose-response curves were fit, and DC50 (the concentration of the drug when the degradation rate reaches 50%) and Dmax (the maximum degradation rate) were calculated.

VCaP cells = assay: Assay on inhibitory activity for VCaP cell proliferation (CCK-8); type: cell-based; settings: 168 h incubation
How it was run: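 VCaP cells seeded at 1×10^5 cells/mL in phenol red-free DMEM with 5% charcoal-stripped FBS, treated in duplicate at 10000–0.61 nM final. After 168 h incubation, viability was read with CCK-8.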

Mouse pharmacokinetics = type: in vivo, ICR mice
Method: ICR mice weighing 18-22 g were randomized into groups of 9 after 3-5 days of acclimatization, and then intragastrically given the test compound solution at a dose of 10 mg/kg and intravenously injected with the test compound solution at a dose of 1 mg/kg.
Blood sampling time points for the intragastrical administration group were 15 min, 0.5 h, 1 h, 2 h, 3 h, 4 h, 6 h, 8 h, 10 h, and 24 h, and blood sampling time points for the intravenous injection administration group were […], 15 min, 0.5 h, 1 h, 2 h, 4 h, 6 h, 8 h, 10 h, and 24 h; blood was collected from the orbit to prepare plasma samples to be tested. 30 μL of each of the plasma samples to be tested and a standard curve sample were taken, and an acetonitrile solution containing an internal standard was added. Supernatants were obtained by protein precipitation, diluted, and then assayed by LC/MS/MS. Pharmacokinetic parameters were fitted using a non-compartmental model (see Table 6).

[1] = In vitro stability in liver microsome; type: in vitro ADME; settings: human liver microsome 0.5 mg/mL, NADPH, 37° C.
Method: Liver microsome incubation samples (species: human, monkey, rat, and mouse) were prepared by mixing a PBS buffer (pH=7.4), a liver microsome solution (0.5 mg/mL), a test compound, and an NADPH+MgCl2 solution and incubated at 37° C. and 300 rpm for 1 h. Zero-hour samples were prepared by mixing a PBS buffer (pH=7.4), a liver microsome solution (0.5 mg/mL), and a test compound. An acetonitrile solution containing an internal standard was added to the samples, and supernatants were prepared by protein precipitation, diluted, and then assayed by LC/MS/MS.

LNCaP cells = assay: Assay on inhibitory activity for LNCaP cell proliferation (CCK-8); type: cell-based; settings: 168 h incubation
How it was run: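 Cells seeded at 1×10^5 cells/mL in phenol red-free 1640 with 2% CSS-FBS, treated at final 10000 nM-0.61 nM in duplicate. After 168 h incubation, viability read with CCK-8.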

AR in LNCaP cells = target: T2, AR in LNCaP cells (Homo sapiens, UniProt P10275, T878A); assay: Assay on degradation activity for AR in LNCaP cells (HTRF human androgen receptor detection kit); type: cell-based; settings: 24 h incubation; for DC50: HTRF; for Dmax: maximum degradation rate
T2 construct: Assay on Degradation Activity for AR in LNCaP Cells; endogenous in cells; host or cells: LNCaP cells
T2 sequence (P10275 1-920 T878A): T1 sequence (P10275 1-920) with T878A
How it was run: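 LNCaP cells seeded in 2% CSS-FBS phenol red-free 1640 medium overnight, then treated in duplicate with 500 nM–0.488 nM compound for 24 h. AR in lysates quantified by HTRF (Eu cryptate/d2 antibodies, 2 h, 25 °C, 665/620 nm); DC50 and Dmax from four-parameter fits.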

[2] = ICR, mouse, plasma, iv, 1 mg/kg, Mouse i.v. 1 mpk
[3] = ICR, mouse, plasma, iv, 1 mg/kg, Mouse i.v. 1 mpk, read-out: AUC
[4] = ICR, mouse, plasma, po, 10 mg/kg, Mouse i.g. 10 mpk
[5] = ICR, mouse, plasma, po, 10 mg/kg, Mouse i.g. 10 mpk vs i.v. 1 mpk
[6] = ICR, mouse, plasma, po, 10 mg/kg, Mouse i.g. 10 mpk, read-out: AUC
[7] = ICR, mouse, plasma, po, 10 mg/kg, Mouse i.g. 10 mpk, read-out: Cmax

SMILES	DC50 (AR in VCaP cells)	IC50 (VCaP cells; Homo sapiens, VCaP, 168 h)	clearance (Mouse pharmacokinetics; [2])	half-life (Mouse pharmacokinetics; [2])	AUC (Mouse pharmacokinetics; [3])	half-life (Mouse pharmacokinetics; [4])	bioavailability (Mouse pharmacokinetics; [5])	AUC (Mouse pharmacokinetics; [6])	Cmax (Mouse pharmacokinetics; [7])	Human liver microsome Residuals at 60 min (%) [1]	IC50 (LNCaP cells; Homo sapiens)	IC50 (VCaP cells; Homo sapiens)	DC50 (AR in LNCaP cells)	Dmax (AR in LNCaP cells)	also measured
N#Cc1ccc(O[C@H]2CC[C@H](NC(=O)c3ccc(C4CCN(CC5CN(c6cc7onc(C8CCC(=O)NC8=O)c7c7ccccc67)C5)CC4)nn3)CC2)cc1Cl (stereo partly shown) [Compound 47]	–	–	–	–	–	–	–	–	–	>85%	–	< 10 nM	≤ 20 nM	> 80%	–
N#Cc1ccc(O[C@H]2CC[C@H](NC(=O)c3ccc(N4CCC(N5CC(CN6Cc7ccc8c(C9CCC(=O)NC9=O)noc8c7C6)C5)CC4)nn3)CC2)cc1Cl (stereo partly shown) [Compound 90]	≤ 1 nM	–	–	–	–	–	–	–	–	>85%	–	< 10 nM	≤ 20 nM	> 80%	–
N#Cc1ccc(O[C@H]2CC[C@H](NC(=O)c3ccc(N4CCC(N5CC(N6Cc7ccc8c(C9CCC(=O)NC9=O)noc8c7C6)C5)CC4)nn3)CC2)cc1Cl (stereo partly shown) [Compound 94]	≤ 1 nM	–	–	–	–	–	–	–	–	>85%	< 1000 nM	< 100 nM	–	–	–
N#Cc1ccc(O[C@H]2CC[C@H](NC(=O)c3ccc(N4CCC5(CC4)CC(CN4Cc6ccc7c(C8CCC(=O)NC8=O)noc7c6C4)C5)nn3)CC2)cc1Cl.O=C(O)/C=C\C(=O)O (stereo partly shown) [Compound 34]	–	–	–	–	–	–	–	–	–	>85%	< 1000 nM	< 100 nM	–	> 80%	–

The next lines start with results.

DC50 (AR in VCaP cells)	IC50 (VCaP cells; Homo sapiens, VCaP, 168 h)	clearance (Mouse pharmacokinetics; [2])	half-life (Mouse pharmacokinetics; [2])	AUC (Mouse pharmacokinetics; [3])	half-life (Mouse pharmacokinetics; [4])	bioavailability (Mouse pharmacokinetics; [5])	AUC (Mouse pharmacokinetics; [6])	Cmax (Mouse pharmacokinetics; [7])	Human liver microsome Residuals at 60 min (%) [1]	IC50 (LNCaP cells; Homo sapiens)	SMILES	IC50 (VCaP cells; Homo sapiens)	DC50 (AR in LNCaP cells)	Dmax (AR in LNCaP cells)	also measured
≤ 1 nM	< 1000 nM	4.72 mL/min/kg	7.28 h	3160 ng·h/mL	6.82 h	46%	14600 ng·h/mL	1160 ng/mL	>85%	< 1000 nM	N#Cc1ccc(O[C@H]2CC[C@H](NC(=O)c3ccc(N4CCC(CN5Cc6ccc7c(C8CCC(=O)NC8=O)noc7c6C5)CC4)nn3)CC2)cc1Cl (stereo partly shown) [Compound 17]	–	–	–	–
≤ 1 nM	< 100 nM	2.78 mL/min/kg	7.58 h	5350 ng·h/mL	–	24.8%	13200 ng·h/mL	886 ng/mL	>85%	< 1000 nM	N#Cc1ccc(O[C@H]2CC[C@H](NC(=O)c3ccc(N4CCN(CC5Cc6ccc7c(C8CCC(=O)NC8=O)noc7c6C5)CC4)nn3)CC2)cc1Cl (stereo partly shown) [Compound 26]	–	–	–	t1/2 (Mouse pharmacokinetics; Mouse i.g. 10 mpk): 11 h
–	–	2.7 mL/min/kg	–	5930 ng·h/mL	5.52 h	31%	18400 ng·h/mL	1200 ng/mL	>85%	< 1000 nM	N#Cc1ccc(O[C@H]2CC[C@H](NC(=O)c3ccc(N4CCC(CN5CCc6ccc7c(C8CCC(=O)NC8=O)noc7c6C5)CC4)nn3)CC2)cc1Cl (stereo partly shown) [Compound 18]	–	≤ 20 nM	> 80%	–
–	< 100 nM	5.8 mL/min/kg	11.5 h	2720 ng·h/mL	8.6 h	39%	10600 ng·h/mL	559 ng/mL	>85%	< 1000 nM	N#Cc1ccc(O[C@H]2CC[C@H](NC(=O)c3cnc(N4CCC(CN5Cc6ccc7c(C8CCC(=O)NC8=O)noc7c6C5)CC4)nc3)CC2)cc1Cl (stereo partly shown) [Compound 119]	–	–	–	–
≤ 1 nM	–	–	–	–	–	–	–	–	>85%	–	N#Cc1ccc(O[C@H]2CC[C@H](NC(=O)c3ccc(N4CCN(CC5Cc6ccc7c(C8CCC(=O)NC8=O)noc7c6C5)CC4)nn3)CC2)cc1Cl (stereo partly shown) [Compound 27]	–	–	–	IC50 (VCaP cells): < 100 nM; AUC (Mouse pharmacokinetics; Mouse i.g. 10 mpk): 20072 ng·h/mL; Cmax (Mouse pharmacokinetics; Mouse i.g. 10 mpk): 1503 ng/mL; t1/2 (Mouse pharmacokinetics; Mouse i.g. 10 mpk): 5.47 h; F(%) (Mouse pharmacokinetics; Mouse i.g. 10 mpk vs i.v. 1 mpk): 35.85%; AUC (Mouse pharmacokinetics; Mouse i.v. 1 mpk, 1 mg/kg): 5599 ng·h/mL; Cl (Mouse pharmacokinetics; Mouse i.v. 1 mpk, 1 mg/kg): 2.63 mL/min/kg; t1/2 (Mouse pharmacokinetics; Mouse i.v. 1 mpk, 1 mg/kg): 7.6 h; IC50 (LNCaP cells): < 1000 nM
